# Activity calls are given as the source filed them. The calls are words filed in the database; no cut-off is given here.
# What was measured:
# [1] = tested on: Colletotrichum gloeosporioides; assay: Antifungal activity against Colletotrichum gloeosporioides assessed as inhibition of mycelial growth incubated for 3 days by cross-bonded method; format: functional; settings: for LC50: 72 h, time 3 day; for Activity: time 3.0 day
# [2] = tested on: Colletotrichum gloeosporioides; assay: Antifungal activity against Colletotrichum gloeosporioides assessed as fold decrease in 3-carboxymuconate cyclase encoding gene expression by qRT-PCR analysis relative to control; format: functional
# [3] = tested on: Colletotrichum gloeosporioides; assay: Antifungal activity against Colletotrichum gloeosporioides assessed as fold decrease in phosphoketolase encoding gene expression by qRT-PCR analysis relative to control; format: functional
# [4] = tested on: Colletotrichum gloeosporioides; assay: Antifungal activity against Colletotrichum gloeosporioides assessed as increase in glycosyl hydrolase encoding gene expression by RNA-seq analysis; format: functional, organism-based
# [5] = tested on: Colletotrichum gloeosporioides; assay: Antifungal activity against Colletotrichum gloeosporioides assessed as induction of morphological changes by measuring appearance of evident craters on surface at 5 mg/L measured after 48 hrs by SEM analysis; format: functional, organism-based
# [6] = tested on: Colletotrichum gloeosporioides; assay: Antifungal activity against Colletotrichum gloeosporioides assessed as decrease in phosphoketolase encoding gene expression by RNA-seq analysis; format: functional, organism-based
# [7] = tested on: Colletotrichum gloeosporioides; assay: Antifungal activity against Colletotrichum gloeosporioides assessed as fold increase in glycosyl hydrolase encoding gene expression by qRT-PCR analysis relative to control; format: functional
# [8] = tested on: Colletotrichum gloeosporioides; assay: Antifungal activity against Colletotrichum gloeosporioides assessed as increase in lipase encoding gene expression by RNA-seq analysis; format: functional, organism-based
# [9] = tested on: Colletotrichum gloeosporioides; assay: Antifungal activity against Colletotrichum gloeosporioides assessed as induction of morphological changes by measuring appearance of twisted hyphae at 5 mg/L measured after 48 hrs by SEM analysis; format: functional, organism-based
# [10] = tested on: Colletotrichum gloeosporioides; assay: Antifungal activity against Colletotrichum gloeosporioides assessed as induction of morphological changes by measuring reduction in high density particles in cytoplasm at 5 mg/L incubated for 24 hrs by TEM analysis; format: functional, organism-based
# [11] = tested on: Colletotrichum gloeosporioides; assay: Antifungal activity against Colletotrichum gloeosporioides assessed as increase in putative hydrolase encoding gene expression by RNA-seq analysis; format: functional, organism-based
# [12] = tested on: Colletotrichum gloeosporioides; assay: Antifungal activity against Colletotrichum gloeosporioides assessed as fold increase in lipase encoding gene expression by qRT-PCR analysis relative to control; format: functional
# [13] = tested on: Colletotrichum gloeosporioides; assay: Antifungal activity against Colletotrichum gloeosporioides assessed as induction of morphological changes by measuring appearance of vacuolizations at 5 mg/L incubated for 24 hrs by TEM analysis; format: functional, organism-based
# [14] = tested on: Colletotrichum gloeosporioides; assay: Antifungal activity against Colletotrichum gloeosporioides assessed as decrease in pyruvate decarboxylase encoding gene expression by RNA-seq analysis; format: functional, organism-based
# [15] = tested on: Colletotrichum gloeosporioides; assay: Antifungal activity against Colletotrichum gloeosporioides assessed as increase in leucine aminopeptidase encoding gene expression by RNA-seq analysis; format: functional, organism-based
# [16] = tested on: Colletotrichum gloeosporioides; assay: Antifungal activity against Colletotrichum gloeosporioides assessed as increase in acetylcholinesterase encoding gene expression by RNA-seq analysis; format: functional, organism-based
# [17] = tested on: Colletotrichum gloeosporioides; assay: Antifungal activity against Colletotrichum gloeosporioides assessed as decrease in oxalate decarboxylase encoding gene expression by RNA-seq analysis; format: functional, organism-based
# [18] = tested on: Colletotrichum gloeosporioides; assay: Antifungal activity against Colletotrichum gloeosporioides assessed as induction of morphological changes by measuring degradation of plasma membrane at 5 mg/L incubated for 24 hrs by TEM analysis; format: functional, organism-based
# [19] = tested on: Colletotrichum gloeosporioides; assay: Antifungal activity against Colletotrichum gloeosporioides assessed as fold increase in leucine aminopeptidase encoding gene expression by qRT-PCR analysis relative to control; format: functional
# [20] = tested on: Colletotrichum gloeosporioides; assay: Antifungal activity against Colletotrichum gloeosporioides assessed as induction of morphological changes by measuring separation of plasma membrane from cell wall at 5 mg/L incubated for 24 hrs by TEM analysis; format: functional, organism-based
# [21] = tested on: Colletotrichum gloeosporioides; assay: Antifungal activity against Colletotrichum gloeosporioides assessed as fold increase in acetylcholinesterase encoding gene expression by qRT-PCR analysis relative to control; format: functional
# [22] = tested on: Colletotrichum gloeosporioides; assay: Antifungal activity against Colletotrichum gloeosporioides assessed as increase in beta-galactosidase encoding gene expression by RNA-seq analysis; format: functional, organism-based
# [23] = tested on: Colletotrichum gloeosporioides; assay: Antifungal activity against Colletotrichum gloeosporioides assessed as induction of morphological changes by measuring appearance of clustered/bundled hyphae at 5 mg/L measured after 48 hrs by SEM analysis; format: functional, organism-based
# [24] = tested on: Colletotrichum gloeosporioides; assay: Antifungal activity against Colletotrichum gloeosporioides assessed as induction of morphological changes by measuring appearance of distorted hyphae at 5 mg/L measured after 48 hrs by SEM analysis; format: functional, organism-based
# [25] = tested on: Colletotrichum gloeosporioides; assay: Antifungal activity against Colletotrichum gloeosporioides assessed as induction of morphological changes by measuring disappearance of organelles at 5 mg/L incubated for 24 hrs by TEM analysis; format: functional, organism-based
# [26] = tested on: Colletotrichum gloeosporioides; assay: Antifungal activity against Colletotrichum gloeosporioides assessed as decrease in 3-carboxymuconate cyclase encoding gene expression by RNA-seq analysis; format: functional, organism-based
# [27] = tested on: Colletotrichum gloeosporioides; assay: Antifungal activity against Colletotrichum gloeosporioides assessed as induction of morphological changes by measuring appearance of disorganized organelles at 5 mg/L incubated for 24 hrs by TEM analysis; format: functional, organism-based
# [28] = tested on: Colletotrichum gloeosporioides; assay: Antifungal activity against Colletotrichum gloeosporioides assessed as induction of morphological changes by measuring increase in low density particles in cytoplasm at 5 mg/L incubated for 24 hrs by TEM analysis; format: functional, organism-based
# [29] = tested on: Colletotrichum gloeosporioides; assay: Antifungal activity against Colletotrichum gloeosporioides assessed as fold increase in beta-galactosidase encoding gene expression by qRT-PCR analysis relative to control; format: functional
# [30] = tested on: Colletotrichum gloeosporioides; assay: Antifungal activity against Colletotrichum gloeosporioides assessed as induction of morphological changes by measuring aggregation of particles into clusters in cytoplasm at 5 mg/L incubated for 24 hrs by TEM analysis; format: functional, organism-based
# [31] = tested on: Colletotrichum gloeosporioides; assay: Antifungal activity against Colletotrichum gloeosporioides assessed as induction of morphological changes by measuring appearance of cavities at 5 mg/L incubated for 24 hrs by TEM analysis; format: functional, organism-based
# [32] = tested on: Colletotrichum gloeosporioides; assay: Antifungal activity against Colletotrichum gloeosporioides assessed as fold increase in putative hydrolase encoding gene expression by qRT-PCR analysis relative to control; format: functional
# [33] = tested on: Colletotrichum gloeosporioides; assay: Antifungal activity against Colletotrichum gloeosporioides assessed as fold decrease in pyruvate decarboxylase encoding gene expression by qRT-PCR analysis relative to control; format: functional
# [34] = tested on: Colletotrichum gloeosporioides; assay: Antifungal activity against Colletotrichum gloeosporioides assessed as fold decrease in oxalate decarboxylase encoding gene expression by qRT-PCR analysis relative to control; format: functional
# [35] = tested on: Colletotrichum gloeosporioides; assay: Antifungal activity against Colletotrichum gloeosporioides assessed as disruption of cell wall at 5 mg/L incubated for 24 hrs by TEM analysis; format: functional, organism-based
compound,measurement,setting,value
Cc1c(O)c(Cc2c(O)c3ccccc3n(C)c2=O)c(O)c2c1[C@H](C)[C@@H](C)OC2=O,LC50,[1],1.51 mg/L
CC1=C2C(=CO[C@H](C)[C@H]2C)C(O)=C(Cc2c(O)c3ccccc3n(C)c2=O)C1=O,fold change (FC),[2],386
same,fold change (FC),[3],1.47
same,Activity,[4],Active
same,Activity,[5],Active
same,Activity,[6],Active
same,fold change (FC),[7],1.7
same,Activity,[8],Active
same,Activity,[9],Active
same,Activity,[10],Active
same,Activity,[11],Active
same,fold change (FC),[12],8.9
same,Activity,[13],Active
same,Activity,[14],Active
same,Activity,[15],Active
same,Activity,[16],Active
same,Activity,[17],Active
same,Activity,[18],Active
same,fold change (FC),[19],3.5
same,Activity,[20],Active
same,fold change (FC),[21],6
same,Activity,[22],Active
same,Activity,[23],Active
same,Activity,[24],Active
same,Activity,[25],Active
same,Activity,[26],Active
same,Activity,[27],Active
same,Activity,[28],Active
same,fold change (FC),[29],4.7
same,Activity,[30],Active
same,Activity,[31],Active
same,LC50,[1],0.02 mg/L
same,fold change (FC),[32],14
same,fold change (FC),[33],215
same,fold change (FC),[34],23.8
CC1=C2C(=CO[C@H](C)[C@H]2C)C(O)=C(C(=O)O)C1=O,Activity,[1],Active
Cc1c(O)c(C(=O)O)c(O)c2c1[C@H](C)[C@@H](C)OC2=O,Activity,[1],Active
Cn1c(=O)cc(O)c2ccccc21,Activity,[1],Active
Mancozeb,Activity,[35],Active
same,Activity,[13],Active
same,Activity,[1],Active

# Reference: ChEMBL document CHEMBL5335848, “Penicilloneines A and B, Quinolone-Citrinin Hybrids from a Starfish-Derived Penicillium sp” (2024)
